The conditions of series [1]: mouse, 0.2% (w/w) of the diet for 14 weeks; cited from earlier work.
Series [2] has as its system CYP1 enzymes (CYP1A1, CYP1A2, CYP1B1). As to the kind of experiment: Incubation with human CYP1 Supersomes, HPLC analysis. To be noted: NADPH, 37 °C, 20 min. Format: in vitro ADME. As to the method: The CYPs isozyme panel used in this study were prepared from transformed insect cells expressing human CYPs (CYP1A1, CYP1A2 or CYP1B1) with co-expression of human NADPH reductase (Supersomes^TM). […] The general procedure was as follows: DMU212 was separately incubated with CYP1A1, CYP1A2, CYP1B1, CYP3A4 and non-CYP-expressing Supersomes^TM in the presence of phosphate buffer and NADPH at 37 °C. Samples were taken at regular intervals of 5 min over a 20 min period, and the enzymatic reaction in the sample was terminated immediately. Following centrifugation, the supernatants were removed and analysed by HPLC.
After 10 min of analysis, a linear gradient was initiated with the acetonitrile content rising to 70% over 5 min and with the 50 mM ammonium acetate decreasing accordingly. An equilibration time of 6 min was allowed between each sample. Analysis was conducted with a Jasco (Jasco UK limited) analytical system consisting of an AS841 autosampler, PU980 pump and LG low-pressure tertiary mixing valve, FP1500 fluorescence detector (JASCO UK Ltd., Heckmondwike, UK), column heater/ chiller (Jones Chromatography), and DG440 in-line degasser (Phenomenex, UK). Analytical data were collected using Borwin HPLC software (version 1.5), For the detection of DMU215, an in-line photoreactivity cell was used (Beam Boost^TM, Advanced Separations Technology Incorporated).

A further series concerns MCF7. Briefly: MTT cytotoxicity assay, MCF7 cells (uninduced). Format: cell-based, human. The conditions noted are these: Homo sapiens, MCF7, 96 h, read-out: IC50 MCF7. As to the method: (§1) The antiproliferative activity of the resveratrol analogues was investigated using a human breast cell line panel, which has been characterised for CYP1 expression in our laboratories. IC50 values for both cis- and trans-isomers were determined using a standard 3-[4,5-dimethylthiazol-2-yl]-2,5-diphenyl tetrazolium bromide (MTT) cell viability assay and are shown in Table 1 (trans-stilbene analogues) and Table 2 (cis-stilbene analogues).
(§2) MCF7 cells are both ER positive and Ah receptor positive and have been well documented for their CYP1 expression, and it is known that treatment with TCDD elevates CYP1A1 and CYP1B1 expression. The cells were treated with DMSO (0.1%) for 24 h for constitutive expression, whereas for inducible CYP1 expression, the cells were treated with TCDD (10 nM) for 24 h.
(§3) A standard MTT (3-[4,5-dimethylthiazol-2-yl]-2,5-diphenyl tetrazolium bromide) cell viability assay was employed to evaluate the cytotoxicity of the stilbenes prepared. The MTT assay is a rapid quantitative spectrophotometric method for determining cell growth (viability) due to necrosis or apoptosis in monolayer-cultured cell lines in response to external factors. It is widely employed to evaluate the cytotoxicity of potential medicinal agents.
(§4) MCF7 cells were grown in RPMI-1640 medium with phenol red and 10% (v/v) heat-inactivated (heated to 56 °C for 45 min) foetal calf serum. MDA-468 cells were grown in RPMI-1640 medium with 10% (v/v) heat-inactivated foetal calf serum and L-glutamine (2 mM) without phenol red. MCF-10A cells were grown in Dulbecco’s modified Eagle’s medium/ Ham’s F-12 medium (1:1) with 5% (v/v) heat-inactivated foetal calf serum, epidermal growth factor (20 ng/mL), insulin ([…]) and hydrocortisone (500 ng/mL). Cells were maintained at 37 °C, 5% CO2/95% air with 100% humidity and passaged every 2–3 days using trypsin EDTA solution (0.25% w/v). Adhered cells at sub confluence were harvested for experimental use.
(§5) Aliquots of cell suspensions (100 µL at 2 × 10^3 cells per ml) were dispensed into sterile 96-well microtiter flat-bottomed plates. For the MDA468 and MCF10A cell lines, the plates were incubated at 37 °C, 5% CO2/95% air with 100% humidity for 24 h prior to the addition of test compounds. For MCF7 cells, after allowing approximately 4 h for cells to adhere, 100 µL of medium containing TCDD (from 100 mM stock in DMSO) or medium with 0.2% (v/v) DMSO was added to give a final concentration of 10 nM TCDD and 0.1% (v/v) DMSO. After 24 h, the medium was aspirated and replaced with fresh medium (100 µL) before the addition of test compounds.
(§6) Then, 100 µL aliquots of test compounds were added within 30 min into the wells from a 100 mM stock solution in DMSO and serially diluted to give final concentrations of […], 0.01, 0.003, 0.001 and 0.0003 µM. […] The cells were allowed to grow for 96 h at 5% CO2, 37 °C, to give 80–90% confluence in the control wells, after which 50 µL of 2 mg/mL MTT (final concentration 0.4 mg/mL) in sterile phosphate buffer was added to each well and the plates were further incubated for 2 h. All medium was aspirated and the formazan precipitate generated by viable cells was solubilised by 150 µL of DMSO. All the plates were vortexed and the absorbance at 540 nm was determined using a SpectraMax M5 plate reader (Molecular Devices, Wokingham, UK).
(§7) Results were expressed as a percentage of the control value versus the negative logarithm of the molar drug concentration range using GraphPad Prism (Version 5.00). Relative toxicities of each compound within each cell line were expressed as 50% of growth inhibition (IC50). All determinations were carried out in quadruplicate.
Background: Formazan colour is commonly taken as a measure of viable cells.

The next series relates to MDA468. Briefly: MTT cytotoxicity assay, MDA468 cells. To be noted: for TS = tumour selectivity = IC50 MCF10A/IC50 MDA468: ratio of IC50 values. Format: cell-based, human. The protocol:
as §1
MDA468 cells represent an aggressive multi-drug-resistant tumour type and are ER negative but are aryl hydrocarbon (Ah) receptor positive in the presence of TCDD [46].
as §3, §4, §5, §6, §7

The subject of the next series is MCF7 (TCDD). Briefly: MTT cytotoxicity assay, TCDD-induced MCF7 cells. The conditions noted are these: Homo sapiens, MCF7, read-out: IC50 MCF7 (TCDD). Format: cell-based, human. The protocol: as §1, §2, §3, §4, §5, §6, §7
In the next series the test system is MDA231. Briefly: MTT cytotoxicity assay, MDA231 cells. The class given is cell-based. To be noted: Homo sapiens, MDA-MB-231; triple negative breast tumour cell line. The protocol:
DMU212 was also evaluated for cytotoxic activity in the aggressive, triple negative breast tumour cell line MDA231. This cell line has been reported to only weakly express CYP1A1 but constitutively express CYP1B1 [33]. […] However further studies would be required to confirm this statement.
MDA231 breast cancer cell line represents an aggressive tumour type. Treatment of this ER-negative and Ah receptor-positive cell line with TCDD has been reported to only weakly induce CYP1A1 mRNA expression but enhance the constitutive CYP1B1 expression. Other researchers have reported the ratio of active CYP1A1/CYP1B1 protein as 16/84 ratio in MDA231 [32].
A standard MTT (3-[4,5-dimethylthiazol-2-yl]-2,5-diphenyl tetrazolium bromide) cell viability assay was employed to evaluate the cytotoxicity of the stilbenes prepared. The MTT assay is a rapid quantitative spectrophotometric method for determining cell growth (viability) due to necrosis or apoptosis in monolayer-cultured cell lines in response to external factors. […]
Then, 100 µL aliquots of test compounds were added within 30 min into the wells from a 100 mM stock solution in DMSO and serially diluted to give final concentrations of […], 0.01, 0.003, 0.001 and 0.0003 µM. […] All the plates were vortexed and the absorbance at 540 nm was determined using a SpectraMax M5 plate reader (Molecular Devices, Wokingham, UK). […]

A further series has as its system MCF10A. As to the kind of experiment: MTT cytotoxicity assay, MCF10A non-tumour control cells. The conditions noted are these: Homo sapiens, MCF-10A, 96 h, read-out: IC50 MCF10A. Format: cell-based. The protocol: as §1
MCF10A cells are non-tumourigenic human mammary epithelial in origin which have been spontaneously immortalised without chemical intervention. CYP1 activity in MCF10A cells is negligible. […] Thus, MCF10A cell line is commonly used as a control in cytotoxicity assays.
as §3, §4, §5, §6, §7

The source of these data is article PMC10818546, “CYP1-Activation and Anticancer Properties of Synthetic Methoxylated Resveratrol Analogues” (Molecules, 2024).

`COc1ccc(/C=C/c2cc(OC)c(OC)c(OC)c2)cc1` [DMU212, (E)-4,3′,4′,5′-tetramethoxystilbene]: the hepatotoxicity result in series [1] is given as “without any obvious signs of hepatoxicity”. The “steady state level in the liver” value in series [1] is on record as “up to 0.7 nmol/g tissue”. Further, in series [2], the “substrate for CYP1 enzymes” value was “substrate for CYP1 enzymes”. The IC50 (in general, the concentration needed to halve the response being measured) was 2600 nM with MCF7; 1 nM in the series on MDA468 (Homo sapiens, 96 h, read-out: IC50 MDA468); 120 nM in the series with MCF7 (TCDD); greater than 100000 nM in the series on MDA231; 4300 nM in the series with MCF10A. Moreover, the figures for the “TS = tumour selectivity = IC50 MCF10A/IC50 MDA468” value in the series with MDA468 and with MDA468 (listed as 212) were “over 4000” and 4300, respectively.
